Measurements: US20100130432A1, “Non-Natural Amino Acids and Neurotensin Analogues Thereof” (priority 2005, published 2010)
“Also recorded” adds a separate entry of the source. Like-named read-outs stand apart in the source and are kept apart here. Non-standard residues stand in square brackets, D forms with d. Residues, ends and D or L forms follow the SMILES beside them. *: point of attachment. Tle = CC(C)(C)[C@H](N)C(=O)O; X1 = C[C@@H](CCCCCN)C(=O)*

Columns and labels:
[1] = biological target: NTR-1 (Homo sapiens, UniProt P30989); assay: Functional agonism: induction of cAMP and inositol phosphate production; type: cell-based
Sequence of NTR-1 (P30989 whole entry, species assumed): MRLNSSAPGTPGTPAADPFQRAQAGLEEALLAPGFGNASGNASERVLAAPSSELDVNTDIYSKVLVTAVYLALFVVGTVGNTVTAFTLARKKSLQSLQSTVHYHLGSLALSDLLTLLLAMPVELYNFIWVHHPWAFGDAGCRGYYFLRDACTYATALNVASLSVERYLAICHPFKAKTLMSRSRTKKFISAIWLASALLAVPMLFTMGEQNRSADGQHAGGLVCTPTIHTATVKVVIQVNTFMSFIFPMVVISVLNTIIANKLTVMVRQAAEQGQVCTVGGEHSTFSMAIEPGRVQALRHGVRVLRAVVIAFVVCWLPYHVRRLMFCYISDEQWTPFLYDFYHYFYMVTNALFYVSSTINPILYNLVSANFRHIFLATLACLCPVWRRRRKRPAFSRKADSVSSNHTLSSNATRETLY

[2] = tested on: mouse bone marrow cells; assay: Micronucleus study; type: in vivo; details: initial data
Procedure: Genetic Toxicology. […] Experimental protocols are as follows.
In the micronucleus study, 90 CD-1 mice used in the study consisted of 10/sex/group in Groups 1-4 (control, low-, mid-, and high-dose) and 5/sex in the positive control group. Test peptide as administered orally, the positive control, Cyclophosphamide at 80 mg/kg, as administered orally. Approximately 24 and 48 hours after dosing, mice were killed and bone marrow obtained from both femurs. A slide of a bone marrow suspension was prepared, stained with Wright-Giemsa stain, dried, and scored blind. The number of polychromatic erythrocytes (PCE) among the total erythrocytes (PCE+normochromatic erythrocytes (NCE)) were determined for each animal by counting at least 200 erythrocytes. The number of micronucleated polychromatic erythrocytes (MPCE) then were scored for 2000 PCE per animal. A positive result was obtained, if there is a positive dose-response trend or statistically significant increase in the number of MPCE at one or more dose levels compared to controls.

[3] = biological target: NTR-2 (Homo sapiens, UniProt O95665); assay: Competitive NTR binding versus radiolabeled NT[8-13]
Sequence of NTR-2 (O95665 whole entry, species assumed): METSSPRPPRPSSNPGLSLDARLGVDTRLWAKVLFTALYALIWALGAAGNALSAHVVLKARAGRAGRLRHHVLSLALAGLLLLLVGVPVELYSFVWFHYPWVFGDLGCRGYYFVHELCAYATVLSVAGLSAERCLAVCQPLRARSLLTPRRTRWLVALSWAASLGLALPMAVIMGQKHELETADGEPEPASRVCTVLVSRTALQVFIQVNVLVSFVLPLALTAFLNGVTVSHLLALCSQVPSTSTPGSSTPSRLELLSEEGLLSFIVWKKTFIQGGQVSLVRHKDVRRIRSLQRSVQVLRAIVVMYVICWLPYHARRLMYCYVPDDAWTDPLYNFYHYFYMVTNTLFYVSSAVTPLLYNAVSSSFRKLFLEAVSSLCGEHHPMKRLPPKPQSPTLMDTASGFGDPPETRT

[4] = tested on: rats
From the text: Chronic Testing Protocols. […] Induced hypothermia was monitored and tested for significance as described above. […] The test protocol for day five was as described above.

[5] = intra-stomach
Procedure: These samples were used for the determination of plasma drug by LC/MS/MS for estimating pharmacokinetic parameters and segmental absorption. The bioavailability of intra-stomach, intra-duodenum, intra-jejunum, intra-colon administration relative to intravenous administration and gavage was calculated.

[6] = Plasma stability, quantitative MALDI-MS assay; type: in vitro ADME
[7] = tested on: rats; assay: Maximum tolerated dose; details: rat, in vivo
[8] = in vivo; details: rat
[9] = biological target: hERG (human ether-a-go-go related gene) channels (Homo sapiens, UniProt Q12809); details: initial results
Sequence of hERG (human ether-a-go-go related gene) channels (Q12809 whole entry): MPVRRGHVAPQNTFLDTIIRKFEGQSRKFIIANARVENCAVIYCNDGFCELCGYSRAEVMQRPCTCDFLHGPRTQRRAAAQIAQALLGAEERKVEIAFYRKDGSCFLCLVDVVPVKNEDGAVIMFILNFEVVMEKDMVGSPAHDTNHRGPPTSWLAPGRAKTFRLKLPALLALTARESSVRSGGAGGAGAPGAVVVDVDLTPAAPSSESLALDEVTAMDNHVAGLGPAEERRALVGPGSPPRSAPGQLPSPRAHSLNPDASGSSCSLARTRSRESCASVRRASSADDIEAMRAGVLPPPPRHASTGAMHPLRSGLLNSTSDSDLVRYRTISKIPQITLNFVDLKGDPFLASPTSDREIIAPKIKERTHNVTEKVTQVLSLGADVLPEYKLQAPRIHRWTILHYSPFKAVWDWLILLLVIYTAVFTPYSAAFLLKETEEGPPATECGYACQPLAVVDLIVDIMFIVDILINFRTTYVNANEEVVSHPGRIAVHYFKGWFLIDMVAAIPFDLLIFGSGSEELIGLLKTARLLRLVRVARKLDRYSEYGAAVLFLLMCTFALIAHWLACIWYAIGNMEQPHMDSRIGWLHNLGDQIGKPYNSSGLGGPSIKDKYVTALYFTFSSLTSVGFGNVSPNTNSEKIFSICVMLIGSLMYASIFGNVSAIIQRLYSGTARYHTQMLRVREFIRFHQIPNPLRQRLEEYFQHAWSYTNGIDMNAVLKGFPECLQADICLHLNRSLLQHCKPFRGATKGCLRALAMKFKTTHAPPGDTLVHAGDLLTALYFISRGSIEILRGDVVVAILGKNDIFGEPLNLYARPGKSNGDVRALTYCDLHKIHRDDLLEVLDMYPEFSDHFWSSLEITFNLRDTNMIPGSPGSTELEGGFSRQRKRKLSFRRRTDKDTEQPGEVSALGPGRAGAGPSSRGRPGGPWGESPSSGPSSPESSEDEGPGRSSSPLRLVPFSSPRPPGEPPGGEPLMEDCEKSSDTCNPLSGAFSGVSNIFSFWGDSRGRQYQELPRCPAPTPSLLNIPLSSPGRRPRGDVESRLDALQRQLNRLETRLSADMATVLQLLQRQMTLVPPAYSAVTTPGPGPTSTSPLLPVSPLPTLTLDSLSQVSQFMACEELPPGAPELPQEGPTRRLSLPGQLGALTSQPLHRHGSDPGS
Procedure: hERG Assay. The objective of the hERG study is to assess the effects of the test article on the rapidly activating inward rectifying potassium current (IKr) conducted by hERG (human ether-a-go-go related gene) channels stably expressed in a HEK293 cell line. The method used is as follows. HEK293 cells, stably transfected with hERG cDNA, were used in the study. All experiments were performed at near-physiological temperature (35±2° C.). A positive control (60 nM terfenadine) was applied to two cells (n 2). Cells were be transferred to the recording chamber and superfused with HB-PS solution. The recording chamber and bathing solution were maintained at a temperature of 35±2° C. using a combination of in-line solution pre-heater, chamber floor heater, and feedback temperature controller. Bath temperature were measured using a thermistor probe.
Patch pipettes were made from glass capillary tubing using a P-97 micropipette puller (Sutter Instruments, CA). A commercial patch clamp amplifier was used for whole cell recordings. Before digitization, current records were low-pass filtered at one-fifth of the sampling frequency.
Cells stably expressing hERG were held at −80 mV.

[10] = tested on: rats; assay: Catalepsy, horizontal bar test
Procedure: Cataleptic Analysis. […] To circumvent these potential confounding factors, tests are performed on an animal only once in a quiet, controlled environment.
Catalepsy Assessment. […] Rats were given an IP injection of peptide (5 mg/Kg), saline, or haloperidol (1 mg/kg). After 3 hours, catalepsy was measured using the horizontal bar test. Briefly, the front paws were placed directly on a horizontal bar 5 mm in diameter placed 7.5 cm above the cage floor. The rat was held in this position for 3 sec and then released. The time from release until the paws return to the cage floor was measured and recorded. A cut-off time of 30 sec was observed; this indicated a fully cataleptic animal as cataleptic animals are frozen to the bar. […] Measures were repeated every 30 min for 4 hr. Data are means±SEM (p<0.01).

[11] = tested on: rats; assay: d-Amphetamine induced hyperlocomotion / locomotor activity chambers; type: in vivo, rat
From the text: Sound- and light-attenuated locomotor cages are used to measure the ability of potential candidates to decrease d-amphetamine-induced hyperactivity.
d-Amphetamine induced hyperlocomotion. Experimentally I male Sprague-Dawley rats were housed as described above. Rats were handled for three days prior to testing to minimize experimenter induced hyperlocomotion on test day. For experiments, sound- and light-attenuated automated photocell beam activity chambers (AccuScan Instruments, Inc., Columbus, Ohio) were used to measure locomotion. Cages were connected to a VersaMax Analyzer (AccuScan) in conjunction with an IBM computer using VersaMax 1.80-0146 software (AccuScan) to record vertical and horizontal activity. Total activity values recorded were the sum of vertical and horizontal activity. […]
Rats were placed in the activity chambers for 30 minutes to habituate and establish baseline activity levels. Then, rats were removed and given an IP or oral dose of peptide (N=7) or saline (N=8) and returned to the chamber to establish the peptide's effect on spontaneous activity levels. About 30 minutes after administration, rats were removed and given an IP injection of d-amphetamine (1 mg/kg) or vehicle and returned to the chamber for a further 1 hr to assess the effect of the peptide on induced hyperlocomotion.
Chronic Testing Protocols.
Separate two-factor ANOVAs for DOSE X TIME were performed for each different time-phase of the assay. Phases for the IP dosing and oral dosing experiments consisted of habituation (time points 10-60), drug (time points 70-120), and amphetamine (time points 130-240).

[12] = Pharmacokinetics of ABS201 in blood/plasma (LC/MS/MS)
From the text: (§1) At selected time points, blood was removed or brain harvested and the concentration of the peptide analog determined using LC/MS/MS.
(§2) These samples were then used for the determination of plasma and brain drug levels by LC/MS/MS for estimating BBB penetration and pharmacokinetic parameters.

[13] = Brain distribution of ABS201 (LC/MS/MS)
From the text: as §1, §2

[14] = tested on: L5178Y TK+/−mouse lymphoma cells; details: initial data, with and without S9

In the case of `CC(C)C[C@H](NC(=O)[C@@H](NC(=O)[C@H](Cc1ccc(O)cc1)NC(=O)[C@@H]1CCCN1C(=O)[C@H](CCCNC(=N)N)NC(=O)[C@@H](C)CCCCCN)C(C)(C)C)C(=O)O` [ABS201, hLys-Arg-Pro-Tyr-t-Leu-Leu] (X1-RPY[Tle]L-OH), the “Functional NTR-1 Agonist” value [1] is reported as “Yes”, the micronucleus study result [2] is reported as “inactive” and the NTR-2 affinity [3] is reported as “sub-micromolar”. For the same molecule, the “dose tolerance” value ([4]; 10x ED50 administered daily over 5 days) was “No”, the dose tolerance ([4]; I.P. 5 days at 5× the ED50, hypothermia and amphetamine-induced locomotion) was “not observed” and the antinociception ([4]; summary of behavioral effects) was “not antinociceptive”. The “uptake in the stomach” value [5] was “Virtually no ABS201 is taken up in the stomach”, the half-life [6] was over 167 h and the “lower limit for the MTD” value [7] was at least 100 times the ED50. The MTD at 48 hr ([8]; iv) was at least 100 mg/kg, the MTD at 48 hr ([8]; po) was at least 500 mg/kg and the hERG study result [9] was “inactive”. For the same molecule, the catalepsy ([10]; IP 5 mg/kg, 5 mg/kg) was “does not induce catalepsy; also recorded: does not induce a cataleptic state”, the catalepsy ([10]; Table 11) was “No” and the “ED50 inhibition of amphetamine-induced hyperlocomotion” value ([11]; IP) was “about 1 mg/kg”. For the same molecule, the “effect of repeated daily dosing on attenuation of d-amphetamine induced hyperlocomotion” value ([11]; IP 5 mg/kg daily, 5 days) was “had no effect”, the “spontaneous locomotor activity, drug phase” value ([11]; IP, all dose groups) was “responded significantly lower than saline during the drug phase” and the “effect on d-amphetamine induced hyperactivity” value ([11]; IP, all doses) was “significantly reduced hyperlocomotion for all doses tested”. For the same molecule, the “spontaneous locomotor activity, drug phase” value ([11]; oral 10, 20, 30 mg/kg) was “only the 10 and 30 mg/kg doses reduced spontaneous locomotor activity”, the “effect on d-amphetamine induced hyperlocomotion” value ([11]; oral 10-30 mg/kg, time points 140-180) was “reduced locomotor activity” and the “time by which plasma levels decreased below the LLOD” value ([12]; IV 1 mg/kg) was at most 45 min. The “clearance as % of rat hepatic blood flow” value ([12]; IV 5 mg/kg) was 74.02%, the “time measurable in whole blood” value ([12]; IV 5 mg/kg) was “up to 120 minutes” and the “time detectable in the blood and brain” value ([12]; IV 5 mg/kg and oral 50 mg/kg) was “up to 120 minutes”. For the same molecule, the plasma levels ([12]; oral 30 mg/kg) was “below the LLOD at all times”, the “levels in whole blood” value ([12]; oral 50 mg/kg) was “below the LLOD at all times” and the Vd ([12]; rat, in vivo, iv, 5 mg/kg) was 0.87 ± 0.27 L/kg. For the same molecule, the clearance ([12]; rat, in vivo, iv, 5 mg/kg) was 40.8 mL/min/kg, the levels in brain ([13]; IV 1 mg/kg and PO 30 mg/kg) was “below the LLOD at all times” and the levels in brain ([13]; IV 5 mg/kg) was “below the LLOD at all times”. For the same molecule, the levels in brain ([13]; oral 50 mg/kg, 15 minutes post administration) was “detected in brains of 2 of 3 animals” and the “mouse lymphoma study result” value [14] was “inactive”.
